Test results published in patent US20220370464A1, “COMPOSITIONS AND METHODS OF TREATING OR PREVENTING OCULAR INFECTIONS WITH FILOCICLOVIR” (Microbiotix, Inc., priority 2019, published 2022).
Where two headings read alike, the source gives them in different places.

Assays:
ocular AdV infections = conditions: literature, cited from earlier work
AdV 4 = assay: Antiviral EC50 against AdV 4 (method not given); format: cell-based, adenovirus 4; conditions: Human mastadenovirus E; AdV 4, summary table
AdV 6 = assay: Antiviral EC50 against AdV 6 (method not given); format: cell-based, adenovirus 6; conditions: Human mastadenovirus C; AdV 6, summary table
AdV 7 = assay: Antiviral EC50 against AdV 7 (method not given); format: cell-based, adenovirus 7; conditions: Human mastadenovirus B; AdV 7, summary table
AdV 8 = assay: Antiviral EC50 against AdV 8 (method not given); format: cell-based, adenovirus 8; conditions: unidentified adenovirus; AdV 8, summary table
Adenovirus 6 (AdV6) = assay: Neutral red survival assay, AdV6 in A549 cells; format: cell-based
Experimental: Similar experiments were carried out with filociclovir against adenovirus 6, adenovirus 7, and adenovirus 8.
The neutral red cell cytotoxicity assay is used to detect cell viability or drug cytotoxicity. The principle of this assay is based on the detection of viable cells via the uptake of the dye neutral red. Neutral red is a eurhodin dye that stains lysosomes in viable cells. Viable cells can take up neutral red via active transport and incorporate the dye into their lysosomes, but non-viable cells cannot not take up this chromophore. Consequently, after washing, viable cells can release the incorporated dye under acidified-extracted conditions. The amount of released dye can be used to determine the total number of viable cells or drug cytotoxicity. As such, cytotoxicity is expressed as a concentration-dependent reduction of the uptake of neutral red after exposure to the compound under investigation.
Neutral red survival assays were carried out in a 96-well format. Briefly, A549 adenocarcinomic human alveolar basal epithelial cells were plated at a concentration of 6×10^3 cells per well one day prior to infection. AdV6 infections were carried out at 5×10^3 PFU per well (an estimated 0.5 PFU/cell at the time of infection). […] Filociclovir plates were read and the results were graphed using GraphPad Prism graphing and statistical software (GraphPad Software, San Diego, Calif.).

AdV5 = assay: Immunofluorescence assay of AdV5-infected A549 cells (DBP and hexon staining); format: cell-based, adenovirus 5; conditions: 27 hours post-infection
Experimental: (§1) Human A549 cells on glass coverslips in 6-well plates were infected at an MOI of 5 PFU/cell with either AdV5 or AdV6 or were mock-infected. After 1 hour, filociclovir was added to a final concentration of 40, 10, 4, or 0 μM. At 27 hours post-infection, the A549 cells were fixed in paraformaldehyde (3.7% in PBS) and permeabilized with methanol. Cells were stained for the Adenovirus DNA-binding protein (DBP; green staining in images) and adenovirus hexon (red staining in images). DBP staining will be […] and uniform during early AdV infection (prior to AdV DNA replication). DBP associates with replication centers as the infection progresses. The replication centers are initially small “dots” (each dot results from one incoming AdV genome). The replication centers will expand and “multiply” as DNA replication takes place. The nuclei become enlarged and misshapen as infection progresses. AdV hexon, the most abundant component of the AdV viral capsid, is not expressed until after DNA replication is taking place and is therefore considered to be a “late” AdV protein.

AdV6 = assay: Immunofluorescence assay of AdV6-infected A549 cells (DBP and hexon staining); format: cell-based, adenovirus 6; conditions: 27 hours post-infection
Experimental: as §1

[1] = Pharmacokinetics in immunosuppressed Syrian hamsters; format: in vivo; conditions: for detectability after administration (FIG. 5): 6 hours after administration
Experimental: In order to test the pharmacokinetics of filociclovir, Syrian hamsters were given either an oral (p.o. 50 mg/kg) or intravenous (i.v. 10 mg/kg) dose of filociclovir.
For i.v. administration, filociclovir was dissolved in DMSO (Sigma D2650) and then diluted with water to a final concentration of 5 mg/ml for filociclovir and 75% DMSO. The dosing solutions were prepared one day before use and stored at 4° C.
Male hamsters were purchased from Envigo (Harlan) at ˜100 g body weight. […] The animals received three injections of CP before the administration of filociclovir. Two groups of animals (12 hamsters/group) were used for the two routes of administrations. In addition, three untreated animals (the same three hamsters for both routes) served as mock controls. The p.o. and i.v. experiments were performed on two consecutive days. As the hamsters weighed approximately 100 g, (+/−10%), they were administered 1 ml and 0.2 ml for the p.o. and i.v. routes, respectively, to achieve the desired dose. For both routes, 3 hamsters were sacrificed at 0.5, 1, 3, and 6 h post dosing.
Plasma and liver samples were collected from all animals and stored at −80° C. until analyzed by LC MS as follows: • All samples and standards were processed on ice; • Standard curve is constructed with authentic compound (fresh powder DMSO reconstitution spiked into “blank” Hamster plasma) and all samples spiked with 500 ng/mL carbamezapine (Internal Standard); • Early time point samples are diluted in “blank” hamster plasma (try to attain concentrations on the standard curve); • Sample extracted with 2× sample volume with 0.1% ammonium formate in methanol (i.e. 30 μL sample+60 μL 0.1% ammonium formate in methanol); • Extracted samples centrifuged on maximum setting in microfuge; • Supernatants are analyzed by LC/MS/MS Dynamic Multiple Reaction Monitoring (DMRM) utilizing custom method.

CMV = conditions: β Herpesvirus, cited from earlier work
HHV-6A = conditions: β Herpesvirus, cited from earlier work
HHV-6B = conditions: cited from earlier work
BK Virus = conditions: Polyomavirus, cited from earlier work
JC Virus = conditions: Polyomavirus, cited from earlier work

Nc1ccn(C[C@@H](CO)OCP(=O)(O)O)c(=O)n1 [CDV, cidofovir, reference compound]
ocular toxicity (ocular AdV infections; even at low doses): substantial ocular toxicity
improvement in the symptoms or course of the disease (ocular AdV infections; ocular AdV infections): not exhibited a statistically significant improvement

Nc1nc2c(ncn2/C=C2/CC2(CO)CO)c(=O)[nH]1 [Filociclovir, 2-amino-9-{(Z)-[2,2-bis(hydroxymethyl)cyclopropylidene]methyl}-3,9-dihydro-6H-purin-6-one]
EC50 (AdV 4): 2400 nM
EC50 (AdV 6): 2000 nM
EC50 (AdV 7): 1000 nM
EC50 (AdV 8): 2000 nM
concentration effective to improve viability of AdV6 infected cells (FIG. 2) (Adenovirus 6 (AdV6); A549 cells, 6 days post-infection, 'as low as'): ≥ 10^−1 μM
CC50/EC50 (Adenovirus 6 (AdV6); AdV6): 27
hexon-positive cells (AdV5; AdV5, A549, 4 μM): Some hexon-positive cells
hexon-positive cells (AdV5; AdV5, A549, 10 μM): extremely few hexon-positive cells
hexon-positive cells (AdV5; AdV5, A549, 40 μM): No hexon-positive cells
hexon-positive cells (AdV6; AdV6, A549, 4 μM): Some hexon-positive cells
hexon-positive cells (AdV6; AdV6, A549, 10 μM): extremely few hexon-positive cells
hexon-positive cells (AdV6; AdV6, A549, 40 μM): No hexon-positive cells
oral bioavailability ([1]; hamsters): good oral bioavailability
detectability after administration (FIG. 5) ([1]; i.v. 10 mg/kg): still detectable
detectability after administration (FIG. 5) ([1]; p.o. 50 mg/kg): still detectable
EC50 (CMV; listed as filociclovir): ≤ 10000 nM
EC50 (CMV): 1000 ± 600 nM
EC50 (HHV-6A; listed as filociclovir): ≤ 10000 nM
EC50 (HHV-6A): 1300 nM
EC50 (HHV-6B): 2300 ± 1000 nM
EC50 (HHV-6B; listed as filociclovir): ≤ 10000 nM
EC50 (BK Virus; listed as filociclovir): ≤ 50000 nM
EC50 (BK Virus): 34000 ± 17000 nM
EC50 (JC Virus; listed as filociclovir): ≤ 50000 nM
EC50 (JC Virus): 46000 ± 44000 nM
